Strand notation (5' to 3'): a small letter for the sugar, then the base; units joined by * are phosphorothioate-linked, units joined directly phosphodiester-linked; [ ] holds rarer units or linkages, { } end groups; capitals alone tell only the bases. k = constrained ethyl (cEt); [5mC] = 5-methylcytosine; d = 2'-deoxy (DNA)
System: Yap1 mRNA
Assay: Antisense inhibition of human Yap1 in A-431 cells by cEt gapmers, single dose (Example 1, RTS4814)
Assay type: cell-based
In short: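 Free uptake of 2,000 nM 3-10-3 cEt gapmer (16-mer, full phosphorothioate, 5-methylcytosines) in A-431 cells for ~48 h. Yap1 mRNA quantified by qRT-PCR with set RTS4814, normalized to total RNA (RiboGreen), and expressed as % of untreated control; asterisked values target the amplicon region.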

[1] = Table 2, A-431 cells, free uptake, 2,000 nM, approximately 48 hours, RTS4814, Yap1 mRNA relative to untreated control cells
[2] = Table 1, A-431 cells, free uptake, 2,000 nM, approximately 48 hours, RTS4814, Yap1 mRNA relative to untreated control cells
[3] = A-431 cells, 5,000 cells per well, free uptake, 2,000 nM modified oligonucleotide, approx. 48 hours, RTS4814, normalized to RIBOGREEN, Table 3

715431 (k[5mC]*k[5mC]*kA*dT*d[5mC]*d[5mC]*dT*dG*dA*dG*dT*d[5mC]*dA*kT*kG*kG; antisense) [Compound 715431]
YAP1 (% UTC) [1]: 99 % UTC

715515 (kT*kA*kT*dG*dA*dG*dT*d[5mC]*dA*dA*d[5mC]*d[5mC]*dT*kG*k[5mC]*kA; antisense) [Compound 715515]
YAP1 (% UTC) [1]: 94 % UTC

715571 (kA*kA*kA*dA*dT*d[5mC]*d[5mC]*dT*dG*d[5mC]*d[5mC]*dA*dA*k[5mC]*kA*kT; antisense) [Compound 715571]
YAP1 (% UTC) [2]: 127 % UTC

715414 (kA*kA*k[5mC]*dA*dT*dG*d[5mC]*dT*dG*dT*dG*dG*dA*kG*kT*k[5mC]; antisense) [Compound 715414]
YAP1 (% UTC) [3]: 31 % UTC

715600 (antisense kA*kA*kT*dT*d[5mC]*d[5mC]*d[5mC]*dA*dA*dG*d[5mC]*dT*dA*k[5mC]*k[5mC]*k[5mC]) [Compound 715600]
YAP1 (% UTC) [3]: 82 % UTC

715451 (antisense k[5mC]*kA*kT*dT*dG*dT*dT*d[5mC]*dT*d[5mC]*dA*dA*dT*kT*k[5mC]*k[5mC]) [Compound 715451]
YAP1 (% UTC) [2]: 75 % UTC

715540 (kT*kG*kA*dA*dG*dA*dA*d[5mC]*dT*dA*dT*dT*dT*k[5mC]*k[5mC]*kT; antisense) [Compound 715540]
YAP1 (% UTC) [3]: 82 % UTC

715474 (antisense k[5mC]*kT*kT*dT*d[5mC]*dT*dT*dT*dA*dT*d[5mC]*dT*dA*kG*k[5mC]*kT) [Compound 715474]
YAP1 (% UTC) [3]: 78 % UTC

715459 (antisense k[5mC]*kT*k[5mC]*dG*dA*dG*dA*dG*dT*dG*dA*dT*dA*kG*kG*kT) [Compound 715459]
YAP1 (% UTC) [3]: 93 % UTC

715472 (antisense kT*kT*kT*dA*dT*d[5mC]*dT*dA*dG*d[5mC]*dT*dT*dG*kG*kT*kG) [Compound 715472]
YAP1 (% UTC) [2]: 52 % UTC

715556 (kA*kA*kG*dT*dT*dA*dT*dT*d[5mC]*dA*dG*d[5mC]*dA*kG*k[5mC]*kT; antisense) [Compound 715556]
YAP1 (% UTC) [2]: 63 % UTC

715522 (kA*k[5mC]*kT*d[5mC]*dT*dT*d[5mC]*dT*dT*dT*d[5mC]*d[5mC]*dA*k[5mC]*kT*k[5mC]; antisense) [Compound 715522]
YAP1 (% UTC) [3]: 87 % UTC

715501 (antisense kA*kA*kA*dA*dG*d[5mC]*d[5mC]*dT*dT*dA*dG*dA*dG*kT*k[5mC]*kA) [Compound 715501]
YAP1 (% UTC) [3]: 28 % UTC

715582 (kG*kT*k[5mC]*dA*dA*dG*d[5mC]*d[5mC]*dT*dG*dT*d[5mC]*dT*kG*kG*kA; antisense) [Compound 715582]
YAP1 (% UTC) [3]: 33 % UTC

715455 (antisense kT*kG*kA*dT*dA*dG*dG*dT*dG*d[5mC]*d[5mC]*dA*d[5mC]*kT*kG*kT) [Compound 715455]
YAP1 (% UTC) [1]: 65 % UTC

715512 (antisense kA*kG*kG*d[5mC]*dG*d[5mC]*dG*d[5mC]*dG*d[5mC]*dA*dT*dT*kG*kT*kG) [Compound 715512]
YAP1 (% UTC) [1]: 97 % UTC

715509 (antisense kT*kG*k[5mC]*dT*dG*dT*dG*d[5mC]*dT*dG*dG*dG*dA*kT*kT*kG) [Compound 715509]
YAP1 (% UTC) [1]: 42 % UTC

715442 (antisense k[5mC]*kA*k[5mC]*dT*dG*dG*dA*dG*d[5mC]*dA*d[5mC]*dT*d[5mC]*kT*kG*kA) [Compound 715442]
YAP1 (% UTC) [2]: 64 % UTC

715417 (kG*kA*kG*d[5mC]*dT*d[5mC]*dG*dA*dA*d[5mC]*dA*dT*dG*k[5mC]*kT*kG; antisense) [Compound 715417]
YAP1 (% UTC) [3]: 104 % UTC

715469 (antisense kT*kA*kG*d[5mC]*dT*dT*dG*dG*dT*dG*dG*d[5mC]*dA*kG*k[5mC]*k[5mC]) [Compound 715469]
YAP1 (% UTC) [2]: 94 % UTC

715620 (antisense kA*kA*kA*dA*dA*dT*dA*dA*dG*dA*d[5mC]*dG*dG*kA*kT*kA) [Compound 715620]
YAP1 (% UTC) [1]: 111 % UTC

715500 (antisense kA*kA*kG*d[5mC]*d[5mC]*dT*dT*dA*dG*dA*dG*dT*d[5mC]*kA*kA*kT) [Compound 715500]
YAP1 (% UTC) [1]: 30 % UTC

715585 (kA*kA*kG*dG*dT*d[5mC]*dT*dG*dG*dA*dA*d[5mC]*dA*kG*kA*kT; antisense) [Compound 715585]
YAP1 (% UTC) [3]: 73 % UTC

715427 (k[5mC]*k[5mC]*kA*dT*d[5mC]*d[5mC]*dA*dT*d[5mC]*dA*dG*dG*dA*kA*kG*kA; antisense) [Compound 715427]
YAP1 (% UTC) [2]: 90 % UTC

715610 (antisense kG*kG*k[5mC]*dT*dG*dT*dG*dT*dA*dG*dG*d[5mC]*dT*kG*kA*k[5mC]) [Compound 715610]
YAP1 (% UTC) [2]: 87 % UTC

715537 (kA*k[5mC]*kT*dT*dG*dG*d[5mC]*dA*d[5mC]*d[5mC]*dA*dA*dA*kA*kG*k[5mC]; antisense) [Compound 715537]
YAP1 (% UTC) [3]: 122 % UTC

715460 (antisense kA*kT*k[5mC]*dT*d[5mC]*dG*dA*dG*dA*dG*dT*dG*dA*kT*kA*kG) [Compound 715460]
YAP1 (% UTC) [2]: 114 % UTC

715628 (antisense kG*k[5mC]*k[5mC]*dT*dA*d[5mC]*d[5mC]*dT*dG*dA*d[5mC]*dA*dT*kT*kT*kT) [Compound 715628]
YAP1 (% UTC) [2]: 114 % UTC

715418 (kA*kG*kT*dG*dT*d[5mC]*d[5mC]*d[5mC]*dA*dG*dG*dA*dG*kA*kA*kA; antisense) [Compound 715418]
YAP1 (% UTC) [2]: 126 % UTC

715543 (kA*k[5mC]*kT*dA*d[5mC]*dT*dT*dG*dA*dA*dG*dA*dA*k[5mC]*kT*kA; antisense) [Compound 715543]
YAP1 (% UTC) [3]: 72 % UTC

715606 (antisense kA*k[5mC]*k[5mC]*dA*dT*dA*dG*d[5mC]*dA*d[5mC]*dA*dG*dA*kA*kT*kT) [Compound 715606]
YAP1 (% UTC) [3]: 88 % UTC

715548 (kA*kG*kT*dT*dG*dT*dT*dG*dA*d[5mC]*d[5mC]*dA*dA*k[5mC]*kT*kA; antisense) [Compound 715548]
YAP1 (% UTC) [1]: 117 % UTC

715619 (antisense kA*kA*kA*dT*dA*dA*dG*dA*d[5mC]*dG*dG*dA*dT*kA*kA*kA) [Compound 715619]
YAP1 (% UTC) [2]: 114 % UTC

715627 (antisense k[5mC]*kT*kA*d[5mC]*d[5mC]*dT*dG*dA*d[5mC]*dA*dT*dT*dT*kT*kG*kG) [Compound 715627]
YAP1 (% UTC) [3]: 88 % UTC

715440 (antisense k[5mC]*kT*kG*dG*dT*dT*d[5mC]*dA*dT*dG*dG*d[5mC]*dA*kA*kA*kA) [Compound 715440]
YAP1 (% UTC) [1]: 85 % UTC

715531 (kA*k[5mC]*kA*dA*d[5mC]*d[5mC]*dT*dG*dG*dT*dT*dT*dG*kT*kT*kT; antisense) [Compound 715531]
YAP1 (% UTC) [3]: 94 % UTC

715611 (antisense k[5mC]*kT*kT*dT*dA*dA*dG*d[5mC]*d[5mC]*dA*d[5mC]*dA*dT*kG*kG*kT) [Compound 715611]
YAP1 (% UTC) [1]: 106 % UTC

715632 (antisense kA*kT*k[5mC]*d[5mC]*dA*dA*dT*dT*dA*dT*dG*dT*d[5mC]*k[5mC]*k[5mC]*kA) [Compound 715632]
YAP1 (% UTC) [1]: 109 % UTC

715602 (antisense kA*k[5mC]*kA*dG*dA*dA*dT*dT*d[5mC]*d[5mC]*d[5mC]*dA*dA*kG*k[5mC]*kT) [Compound 715602]
YAP1 (% UTC) [1]: 110 % UTC

715534 (kT*k[5mC]*k[5mC]*d[5mC]*d[5mC]*dA*dG*dG*dT*d[5mC]*dA*dG*d[5mC]*kA*kT*kG; antisense) [Compound 715534]
YAP1 (% UTC) [3]: 112 % UTC

715437 (antisense k[5mC]*kA*kT*dG*dG*d[5mC]*dA*dA*dA*dA*d[5mC]*dG*dA*kG*kG*kG) [Compound 715437]
YAP1 (% UTC) [1]: 89 % UTC

715530 (kA*kA*k[5mC]*d[5mC]*dT*dG*dG*dT*dT*dT*dG*dT*dT*kT*k[5mC]*k[5mC]; antisense) [Compound 715530]
YAP1 (% UTC) [1]: 61 % UTC

715514 (kG*kA*kG*d[5mC]*dG*dA*dA*dG*dG*dT*dG*d[5mC]*dG*kG*kA*kG; antisense) [Compound 715514]
YAP1 (% UTC) [2]: 121 % UTC

715563 (kA*kG*k[5mC]*dA*d[5mC]*dA*d[5mC]*dA*dA*d[5mC]*dT*d[5mC]*dA*kG*kA*k[5mC]; antisense) [Compound 715563]
YAP1 (% UTC) [1]: 86 % UTC

715578 (kT*kG*kG*d[5mC]*dA*dT*dT*d[5mC]*dA*d[5mC]*dA*dG*dA*kG*kT*kT; antisense) [Compound 715578]
YAP1 (% UTC) [1]: 50 % UTC

715565 (kG*kG*kA*dT*dA*dA*dA*dT*dG*dA*dA*dT*dT*kA*kT*kA; antisense) [Compound 715565]
YAP1 (% UTC) [2]: 115 % UTC

715481 (antisense kT*kT*kG*dG*dA*dA*dA*d[5mC]*d[5mC]*dA*dT*dT*dA*kT*kT*kA) [Compound 715481]
YAP1 (% UTC) [2]: 66 % UTC

715553 (kA*kG*kA*dA*dA*dT*dA*dG*dG*dA*dA*dG*dT*kT*kG*kT; antisense) [Compound 715553]
YAP1 (% UTC) [2]: 90 % UTC

715496 (antisense k[5mC]*k[5mC]*k[5mC]*dT*dT*dG*dA*dA*dA*dA*dT*dA*dA*kG*kG*kG) [Compound 715496]
YAP1 (% UTC) [2]: 124 % UTC

715621 (antisense kT*kA*kA*dA*dA*dA*dA*dT*dA*dA*dG*dA*d[5mC]*kG*kG*kA) [Compound 715621]
YAP1 (% UTC) [3]: 106 % UTC

715507 (antisense kT*kG*kG*dG*dA*dT*dT*dG*dA*dT*dA*dT*dT*k[5mC]*k[5mC]*kG) [Compound 715507]
YAP1 (% UTC) [3]: 95 % UTC

715583 (kG*kG*kG*d[5mC]*d[5mC]*dA*d[5mC]*dA*dA*dA*dA*dT*dA*kA*kA*kA; antisense) [Compound 715583]
YAP1 (% UTC) [2]: 164 % UTC

715415 (k[5mC]*kG*kA*dA*d[5mC]*dA*dT*dG*d[5mC]*dT*dG*dT*dG*kG*kA*kG; antisense) [Compound 715415]
YAP1 (% UTC) [2]: 24 % UTC

Source: patent US11214803B2, “Modulators of YAP1 expression” (Ionis Pharmaceuticals, Inc., priority 2019, dated 2022)
